Laboratory results published in paper PMC10435442, “Developing multitarget coumarin based anti-breast cancer agents: synthesis and molecular modeling study” (Scientific Reports, 2023).
Values after ≈ are worked out from the molar mass of the structure shown. Where two headings read alike, the source gives them in different places.

Key:
in vitro = settings: human, MCF-10A cells (nonmalignant breast)
EGFR = EGFR (Homo sapiens, UniProt P00533); experiment: In vitro EGFR enzyme inhibition assay (ELISA); settings: for EGFR %inh: lab report 01-11-2021
MDA-MB-231 = experiment: MTT cytotoxicity assay, MDA-MB-231; settings: for IC50: Homo sapiens; for % viability: MDA
MCF-10A = experiment: MTT cytotoxicity assay, nonmalignant MCF-10A; settings: read-out: MCF-10A IC50; MTT, nonmalignant MCF-10A;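 also: MTT assay with absorbance read at 570 nm after 48 h exposure of cells to serial compound concentrations at 37 °C, testing selectivity against nonmalignant versus cancer cells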
MCF-7 = experiment: MTT cytotoxicity assay, MCF-7; settings: for IC50: Homo sapiens
[1] = EGFR IC50, lab report 01-11-2021, 10 compounds
[2] = MDA-MB-231, read-out: MDA-MBA-231 IC50
[3] = MDA-MB-231, read-out: cytotoxicity_IC50 MDA
[4] = MCF7, read-out: cytotoxicity_IC50 mcf7

EGFR, sequence (P00533 25-1210): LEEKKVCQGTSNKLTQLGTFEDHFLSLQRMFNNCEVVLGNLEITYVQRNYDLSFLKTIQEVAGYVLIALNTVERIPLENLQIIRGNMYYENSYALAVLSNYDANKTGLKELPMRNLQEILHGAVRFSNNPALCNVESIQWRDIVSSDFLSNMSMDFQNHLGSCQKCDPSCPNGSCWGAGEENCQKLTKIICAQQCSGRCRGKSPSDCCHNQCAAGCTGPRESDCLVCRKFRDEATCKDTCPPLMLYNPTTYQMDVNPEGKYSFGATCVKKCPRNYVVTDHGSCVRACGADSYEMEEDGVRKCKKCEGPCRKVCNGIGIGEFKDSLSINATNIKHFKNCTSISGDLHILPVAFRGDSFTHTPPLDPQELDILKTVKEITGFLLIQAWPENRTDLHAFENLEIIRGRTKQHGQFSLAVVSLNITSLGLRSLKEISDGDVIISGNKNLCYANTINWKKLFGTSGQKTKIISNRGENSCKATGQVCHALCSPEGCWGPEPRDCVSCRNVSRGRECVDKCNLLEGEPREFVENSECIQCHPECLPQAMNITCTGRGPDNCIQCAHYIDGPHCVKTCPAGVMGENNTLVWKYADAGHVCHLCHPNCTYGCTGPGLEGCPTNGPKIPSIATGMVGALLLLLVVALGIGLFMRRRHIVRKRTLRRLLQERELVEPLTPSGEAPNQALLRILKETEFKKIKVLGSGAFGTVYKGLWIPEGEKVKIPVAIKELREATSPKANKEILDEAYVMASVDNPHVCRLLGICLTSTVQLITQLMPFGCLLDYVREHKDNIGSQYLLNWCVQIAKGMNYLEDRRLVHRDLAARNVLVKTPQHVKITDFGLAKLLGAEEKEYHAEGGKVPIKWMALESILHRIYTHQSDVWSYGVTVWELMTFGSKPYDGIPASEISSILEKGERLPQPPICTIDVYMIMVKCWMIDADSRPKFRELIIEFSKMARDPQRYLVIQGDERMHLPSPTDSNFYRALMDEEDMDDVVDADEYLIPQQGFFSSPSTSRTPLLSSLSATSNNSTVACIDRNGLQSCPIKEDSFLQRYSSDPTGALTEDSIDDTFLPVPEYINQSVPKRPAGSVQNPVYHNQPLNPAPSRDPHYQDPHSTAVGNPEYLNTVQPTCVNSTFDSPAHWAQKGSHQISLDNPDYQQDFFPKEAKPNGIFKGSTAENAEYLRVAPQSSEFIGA

O=C(OCc1cc(=O)oc2cc(O)ccc12)c1ccc(Cl)cc1 [Compound 3, (7-Hydroxy-2-oxo-2H-chromen-4-yl)methyl 4-chlorobenzoate]
IC50 at 48 h (in vitro): 122 ± 5.93 µg/mL (≈ 369 µM)
viability at 48 h, 0.4 ug (in vitro): 95.8%
viability at 48 h, 1.6 ug (in vitro): 83.9%
viability at 48 h, 6.25 ug (in vitro): 72.9%
viability at 48 h, 25 ug (in vitro): 61.2%
viability at 48 h, 100 ug (in vitro): 52.7%
IC50 (EGFR; [1]): 0.974 µM
IC50 (EGFR; EGFR inhibition IC50): 0.974 ± 0.06 µM
EGFR %inh (EGFR; conc 0.01 (unit not given)): 17%
EGFR %inh (EGFR; conc 0.1 (unit not given)): 36%
EGFR %inh (EGFR; conc 1 (unit not given)): 60%
EGFR %inh (EGFR; conc 10 (unit not given)): 85%
Percentage above Reference IC50 (potency relative to erlotinib) (EGFR): 8.624%
IC50 (MDA-MB-231; [2]): 67.5 ± 1.22 µM
IC50 (MDA-MB-231; [3]): 22.3 ± 1.22 µg/mL
% viability (MDA-MB-231; 0.4ug (log conc. -0.41)): 76.24%
% viability (MDA-MB-231; 1.6ug (log conc. 0.19)): 65.98%
% viability (MDA-MB-231; 6.25ug (log conc. 0.8)): 58.685%
% viability (MDA-MB-231; 25ug (log conc. 1.4)): 49.2762%
% viability (MDA-MB-231; 100ug (log conc. 2)): 40.41%
IC50 (MCF-10A): 369 ± 5.93 µM
IC50 (MCF-7; MCF7, read-out: MCF-7 IC50): 36.6 ± 0.74 µM
IC50 (MCF-7; [4]): 12.1 ± 0.74 µg/mL
% viability (MCF-7; MCF7, 0.4ug): 72.04%
% viability (MCF-7; MCF7, 1.6ug): 65.12%
% viability (MCF-7; MCF7, 6.3ug): 53.704%
% viability (MCF-7; MCF7, 25ug): 45.5556%
% viability (MCF-7; MCF7, 100ug): 35.679%

COc1ccccc1C(=O)OCc1cc(=O)oc2cc(O)ccc12 [Compound 4, (7-Hydroxy-2-oxo-2H-chromen-4-yl)methyl 2-methoxybenzoate]
IC50 at 48 h (in vitro): 41.6 ± 2.03 µg/mL (≈ 127 µM)
viability at 48 h, 0.4 ug (in vitro): 76.8%
viability at 48 h, 1.6 ug (in vitro): 69.5%
viability at 48 h, 6.25 ug (in vitro): 61.1%
viability at 48 h, 25 ug (in vitro): 53.6%
viability at 48 h, 100 ug (in vitro): 44.3%
IC50 (EGFR; [1]): 0.438 µM
IC50 (EGFR; EGFR inhibition IC50): 0.438 ± 0.027 µM
EGFR %inh (EGFR; conc 0.01 (unit not given)): 25%
EGFR %inh (EGFR; conc 0.1 (unit not given)): 46%
EGFR %inh (EGFR; conc 1 (unit not given)): 70%
EGFR %inh (EGFR; conc 10 (unit not given)): 87%
Percentage above Reference IC50 (potency relative to erlotinib) (EGFR): 19.178%
IC50 (MDA-MB-231; [2]): 6.4 ± 0.11 µM
IC50 (MDA-MB-231; [3]): 2.08 ± 0.11 µg/mL
% viability (MDA-MB-231; 0.4ug (log conc. -0.41)): 60.769%
% viability (MDA-MB-231; 1.6ug (log conc. 0.19)): 51.538%
% viability (MDA-MB-231; 6.25ug (log conc. 0.8)): 43.254%
% viability (MDA-MB-231; 25ug (log conc. 1.4)): 34.142%
% viability (MDA-MB-231; 100ug (log conc. 2)): 25.2071%
IC50 (MCF-10A): 128 ± 2.03 µM
IC50 (MCF-7; MCF7, read-out: MCF-7 IC50): 17.2 ± 0.34 µM
IC50 (MCF-7; [4]): 5.6 ± 0.34 µg/mL
% viability (MCF-7; MCF7, 0.4ug): 68.369%
% viability (MCF-7; MCF7, 1.6ug): 58.612%
% viability (MCF-7; MCF7, 6.3ug): 49.509%
% viability (MCF-7; MCF7, 25ug): 38.9%
% viability (MCF-7; MCF7, 100ug): 30.9103%
